The record followed here is patent publication US3943137A, “Acronycine derivatives” (University of Kansas Endowment Association, priority 1973, dated 1976).

Format in all cases: physicochemical
Data set [1] in a line: Hydrolysis of acylacronycinium salts in aqueous solution (no complexing agent). To be noted: for half-life: read-out: t1/2 (hydrolysis).
A short description of another data set: Solubility. To be noted: water; for solubility (qualitative): acetone, benzene.
Data set [2] is described as follows: Hydrolysis of acylacronycinium salts in presence of complexing agents. To be noted: for half-life at 100 µM: 10^-4 M drug, 25° C., pH 6.0, read-out: Apparent half-life, t1/2; for k (hydrolysis): gentisic acid (0.05 M). How it is done:
In studying the kinetics of hydrolysis of the aforesaid quaternary acyl acronycinium salts to yield acronycine, it was determined that the increased solubility and the rapid rate of hydrolysis were such that said quaternary derivatives were eminently well suited for use as pro-drugs. Nevertheless, the facility with which hydrolysis occurred in water presented one problem of too rapid precipitation from solution as a consequence of the formation of the slightly soluble acronycine free base. In order to prevent any objectionable hydrolysis of the pro-drug in aqueous solution prior to administration, it was discovered that the hydrolytic rate thereof could be retarded by the formation of intermolecular complexes therewith. […] Moreover, since complexation is an equilibrium phenomenon, extensive complexation occurs in the relatively concentrated drug solution. However, upon dilution with aqueous media such as body fluids, the complex species dissociates, and the pro-drug is then rapidly hydrolyzed to the desired drug species, namely, the acronycine free base. Exemplary of the complexing agents which can be used in aqueous solutions of the acylacronycinium salts to retard the hydrolysis thereof are a wide variety of the organic acids and alkali metal salts thereof, preferably the cyclic and aromatic organic acids, and most preferably the hydroxy aromatic acids. Representative of same are gentisic acid, gamma-resorcylic acid, p-hydroxycinnamic acid, 2-furoic acid, m-hydroxycinnamic acid, 3,4-dimethylcinnamic acid and 3-methylgentisic acid, and the sodium and other salts thereof. A suitably stable and useful formulation of an acylacronycinium salt for use in the preparation of pharmaceutical solutions can be simply made by preparing a powder mixture of the desired acylacronycinium salt and a suitable complexing agent in such proportions and amounts that upon addition of an aqueous solvent, the resulting solution would be of a composition such that the hydrolysis of the acylacronycinium salt would be greatly retarded.
Among the number of the hydroxy aromatic acids, particularly the hydroxy benzoic acids that have been utilized according to the invention, excellent results have been attained with the preferred 2,5-dihydroxy-benzoic acid (gentisic acid). […] Mathematical analysis of the results dictates describing this system by two equilibria; one to one complex and one to two complex formation (one drug and two ligand), with the 1:1 complex and the free drug hydrolyzing with half-lives of 120 and 23 minutes, respectively. The solid curve of the FIGURE of drawing illustrates the result of such model. Constants required for the t1/2 calculations were as follows:
and the experimental conditions were:
Use of suitable complexing agents in aqueous solutions of the acylacronycinium salts retarded the hydrolysis of such compounds. Some of the complexing agents used were the following: sodium gentisate, sodium gamma-resorcylate and sodium cinnamate. Table I reflects the effects of sodium gentisate concentration on the apparent rate of hydrolysis of acetylacronycinium perchlorate.
Apparent half-line of acetylacronycinium perchlorate
(10^-^4 M) as a function of sodium gentisate concentration
in water at 25° C. pH = 6.0.
Experimental: Twenty-five mg of acetylacronycinium perchlorate and 4.6 g of sodium gentisate were powdered, mixed and placed in a suitable vial and sealed. Just prior to use, 100 ml of water was added to the vial, and the solid material dissolved rapidly, yielding a solution which was about 10^^-3 M with respect to acetylacronycinium perchlorate and about 0.2 Molar with respect to sodium gentisate.

Where [3] appears, read: acetate buffer (25° C.), replicate runs.
Where [4] appears, read: phosphate buffer (25° C.), replicate runs.
The mark [5] stands for this setting: phosphate buffer, 25° C., pH not given, three runs.
Setting [6] is: phosphate buffer, pH 7.60, 25°C.

Structures are written as SMILES. “And” between values parts separate entries of the source, which are not always exact repeats. Equal entries are not always repeated. Structures can show the parent of a compound that is named as a salt. Where two headings read alike, the source gives them in different places.

`COc1cc2c(c3c1c(OC(C)=O)c1ccccc1[n+]3C)C=CC(C)(C)O2` [Acetylacronycinium Sulfate]: the “k (hydrolysis)” value is 0.000436 s⁻¹ and 0.000423 s⁻¹ in data set [1] (setting [3]); 0.0006 s⁻¹ and 0.000586 s⁻¹ and 0.000538 s⁻¹ in data set [1] (setting [4]). The “t1/2 (hydrolysis)” value in data set [1] (setting [3]) was 0.455 h; in data set [1] (setting [4]), 0.328 h and 0.358 h. For the same compound, the half-life is 0.442 h in data set [1] (acetate buffer, acetate buffer (25° C.), replicate runs) and 0.322 h in data set [1] (phosphate buffer, phosphate buffer (25° C.), replicate runs).
With `COc1cc2c(c3c1c(OC(=O)C(C)(C)C)c1ccccc1[n+]3C)C=CC(C)(C)O2` [pivalylacronycinium perchlorate, Pivalylacronycinium Perchlorate], in data set [1] (setting [5]), the “k (hydrolysis)” value was 0.000717 s⁻¹ and 0.000645 s⁻¹ and 0.000482 s⁻¹; the “t1/2 (hydrolysis)” value was 0.2985 h and 0.3997 h; the half-life stood at 0.268 h.
Take `COc1cc2c(c3c1c(OC(C)=O)c1ccccc1[n+]3C)C=CC(C)(C)O2` [acetylacronycinium perchlorate, Acetylacronycinium Perchlorate]: the “solubility (qualitative)” value in “Solubility” is “insoluble in benzene, but soluble in water and acetone”. Further, the “increase in solubility over the free base” value in the data set “Solubility” is listed as “hundredfold increase in solubility”. Moreover, the solubility in “Solubility” (read-out: Solubility) was approximately 250 µg/mL; in the data set “Solubility” (read-out: solubility in water) it was 250 µg/mL. Moreover, the “enthalpy of activation of hydrolysis” value in data set [1] was “about 20 kcal/mole”. In addition, the “effect of dielectric constant on hydrolysis rate” value in data set [1] (increasing dielectric constant) is “greatly increased”. For the same compound, the “effect of ionic strength, pH, anion, ester group size on hydrolysis rate” value in data set [1] (ionic strength, pH (below 8-9), anion, ester group size) is given as “remarkably insensitive”. The “t1/2 and k of hydrolysis, 3,4-dihydroxycinnamic acid complex” value in data set [2] (3,4-dihydroxycinnamic acid, pH 6.5, 25° C., 0.05 M phosphate buffer) is recorded as “roughly comparable to those generated with the sodium gentisate complex”. For the same compound, the “t1/2 and k of hydrolysis, cinnamic acid complex” value in data set [2] (cinnamic acid, pH 6.5, 25° C., 0.05 M phosphate buffer) is reported as “roughly comparable to those generated with the sodium gentisate complex”. The “t1/2 and k of hydrolysis, gamma-resorcylic acid complex” value in data set [2] (gamma-resorcylic acid, pH 6.5, 25° C., 0.05 M phosphate buffer) is listed as “roughly comparable to those generated with the sodium gentisate complex”. In data set [2] (model constant, sodium gentisate, μ = 1.0 M, 25.0°C, pH 6.5, 520 nm), the “t1/2 1:2 Complex” value is listed as “.infin”. In data set [2] (p-hydroxycinnamic acid, pH 6.5, 25° C., 0.05 M phosphate buffer), the “t1/2 and k of hydrolysis, p-hydroxycinnamic acid complex” value is “roughly comparable to those generated with the sodium gentisate complex”. Further, the “rate of hydrolysis with sodium gentisate” value in data set [2] (sodium gentisate, FIGURE) is listed as “greatly reduced”. Besides, in data set [2] (sodium gentisate, one drug, one ligand, μ = 1.0 M, 25.0°C, pH 6.5, 520 nm, in M^-1 (unit assumed)), the “K1:1 (complexation constant)” value was 4,081. In data set [2] (sodium gentisate, one drug, two ligand, μ = 1.0 M, 25.0°C, pH 6.5, 520 nm), the “k1:2 (complexation constant)” value is recorded as 80,000. In addition, the half-life at 1000 µM in data set [2] (water, about 10^-3 M drug, about 0.2 Molar sodium gentisate, water, reconstituted powder mixture, read-out: apparent hydrolytic half-life (converted)) is approximately 9.5 h. In addition, the half-life at 100 µM in data set [2] (water, pH 6, sodium gentisate 0 M/l, water) is 0.383 h; in data set [2] (water, pH 6, sodium gentisate 0.1 M/l, water), 5.83 h; in data set [2] (water, pH 6, sodium gentisate 0.2 M/l, water), 9.63 h; in data set [2] (water, pH 6, sodium gentisate 1 × 10^-2 M/l, water) it was 2.08 h; in data set [2] (water, pH 6, sodium gentisate 2 × 10^-2 M/l, water), 2.6 h; in data set [2] (water, pH 6, sodium gentisate 2.5 × 10^-3 M/l, water), 1.55 h. Moreover, the half-life at 100 µM in data set [2] (water, pH 6, sodium gentisate 4 × 10^-2 M/l, water) was 3.45 h; in data set [2] (water, pH 6, sodium gentisate 5 × 10^-3 M/l, water), 1.8 h; in data set [2] (water, pH 6, sodium gentisate 6 × 10^-2 M/l, water), 4.33 h; in data set [2] (water, pH 6, sodium gentisate 8 × 10^-2 M/l, water), 4.92 h. Also, the half-life in data set [2] (water, pH 6.5, 1:1 complex with sodium gentisate, two-equilibria model, μ = 1.0 M, 25.0°C, pH 6.5, 520 nm, read-out: half-life of hydrolysis, 1:1 complex) came out at 2 h; in data set [2] (water, pH 6.5, model constant, sodium gentisate, μ = 1.0 M, 25.0°C, pH 6.5, 520 nm, read-out: t1/2 1:1 Complex), 1.98 h.
With `CCC(=O)Oc1c2ccccc2[n+](C)c2c3c(cc(OC)c12)OC(C)(C)C=C3` [propionylacronycinium perchlorate, Propionylacronycinium Perchlorate], the “k (hydrolysis)” value in data set [1] (phosphate buffer, pH 7.50, 25°C) is 0.000467 s⁻¹; in data set [1] (setting [6]) it was 0.000767 s⁻¹ and 0.000783 s⁻¹; in data set [2] (pH 2.70, 25°C) it was 0.0067 min⁻¹; in data set [2] (pH 2.78, 25°C), 0.008 min⁻¹. Also, the half-life was 0.407 h in data set [1] (phosphate buffer, pH 7.5, phosphate buffer, pH 7.50, 25°C); 0.248 h in data set [1] (phosphate buffer, pH 7.6, phosphate buffer, pH 7.60, 25°C); 1.71 h in data set [2] (0.05 m gentisic acid, pH 2.7, gentisic acid (0.05 M), pH 2.70, 25°C, read-out: t1/2 (hydrolysis)); 1.44 h in data set [2] (0.05 m gentisic acid, pH 2.78, gentisic acid (0.05 M), pH 2.78, 25°C, read-out: t1/2 (hydrolysis)). Also, the “t1/2 (hydrolysis)” value in data set [1] (setting [6]) turned out to be 0.243 h.
`COc1cc2c(c3c1c(OC(C)=O)c1ccccc1[n+]3C)C=CC(C)(C)O2` [Acetylacronycinium Chloride]: the “k (hydrolysis)” value turned out to be 0.000413 s⁻¹ in data set [1] (methanol/water (90/10), pH 0.28) and 0.000417 s⁻¹ in data set [1] (methanol/water (90/10), pH 1.28). Moreover, the half-life in data set [1] (methanol/water (90/10), pH 0.28, methanol/water (90/10), pH 0.28) is 0.467 h; in data set [1] (methanol/water (90/10), pH 1.28, methanol/water (90/10), pH 1.28), 0.462 h.
Regarding `COc1cc2c(c3c1c(=O)c1ccccc1n3C)C=CC(C)(C)O2` [perchlorate salt, acronycinium perchlorate], the “solubility (qualitative)” value in the data set “Solubility” was “soluble in water and insoluble in acetone and benzene”.
As for `COc1cc2c(c3c1c(OC(=O)C(F)(F)F)c1ccccc1[n+]3C)C=CC(C)(C)O2` [Trifluoroacetylacronycinium Perchlorate], the reactivity with chloroform result in data set [1] (chloroform) is “little reaction with chloroform (until water was added)”. Further, the hydrolysis on storage entry in data set [1] (overnight in desiccator while still moist) is “Some hydrolysis occurred overnight”. Moreover, the “reactivity with water and methanol” value in data set [1] (water and methanol) was “reacted very quickly with water and methanol”.
Turning to `COc1cc2c(c3c1c(OC(=O)C(C)C)c1ccccc1[n+]3C)C=CC(C)(C)O2` [Isobutyrylacronycinium Perchlorate], the “k (hydrolysis)” value in data set [1] (phosphate buffer, pH 6.33, 24° C.) amounted to 0.0003428 s⁻¹. Besides, in data set [1] (phosphate buffer, pH 6.33, phosphate buffer, pH 6.33, 24° C.), the half-life came to 0.562 h.

In general, solubility refers to how much of the substance goes into solution per volume.
